Results from patent publication US12458643B2, “Antidepressant/anxiolytic drug in which PAC1 receptor antagonist is used” (KAGOSHIMA UNIVERSITY, priority 2020, dated 2025).

Tests used:
normal mice [1] = assay: Novel object recognition test in normal mice; type: in vivo, mouse; conditions: 30 mg/kg i.p., 60 minutes later
Experimental: Male C57BL/6J mice (8 weeks old) were acclimatized to the test box by exploration at 10 min/day for 3 days. On the fourth day, two objects differing in shape were placed in the test box, and the mice were allowed to freely explore the test box for 10 minutes (training trial). 23 hours after the completion of exploration, a vehicle (10% DMSO solution; dissolved in saline; n=10) or PA-915 (30 mg/kg; n=10) was intraperitoneally administered thereto (0.1 mL/10 g). 60 minutes later, one of the two objects was changed to a novel object, and the mice were allowed to explore the test box for 5 minutes (retention trial). Novel and known object exploration times were measured. The results are shown in FIGS. 36B and 36C (B: discrimination index, C: novel object exploration ratio). The data was indicated by mean±standard error.

normal mice [2] = assay: Y maze test in normal mice; type: in vivo, mouse; conditions: 30 mg/kg i.p., 60 minutes after
Experimental: A vehicle (10% DMSO solution; dissolved in saline; n=11) or PA-915 (30 mg/kg; n=10) was intraperitoneally administered (0.1 mL/10 g) to male C57BL/6J mice (8 to 12 weeks old). After a lapse of 60 minutes after administration, the mice were allowed to explore the Y maze for 5 minutes in a laboratory (illuminance: 20 lx). The data was indicated by mean±standard error.

For `O=C(NCCc1c[nH]cn1)C1CC(=O)N(c2n[nH]c3c(Cl)cccc23)C1` (centres unmarked) [PA-915, N-[2-(1H-imidazol-4-yl)ethyl]-1-(7-chloro-1H-indazol-3-yl)-5-oxo-3-pyrrolidinecarboxamide], which “influence on cognitive function (novel object recognition test)” value (normal mice [1]) is on record?
Its value is “had no influence on the cognitive function”.

And the “influence on cognitive function (Y maze test)” value (normal mice [2])?
Its value is “had no influence on the cognitive function”.
